Laboratory results: patent US8920851B2, “Treatment of neurodegenerative diseases” (Velacor Therapeutics Pty Ltd, priority 2006, dated 2014)
Entries after “also recorded” stand apart in the source; their conditions may differ.

Experiments:
[1] = molecular target: T1, PP2A catalytic subunit complexed with Akt (Homo sapiens, UniProt P67775); assay: Co-immunoprecipitation of PP2A catalytic subunit with Akt from PC3 cells; assay type: cell-based; details: 500 μM, 1.5 h, densitometry
T1 construct: Total Akt was immunoprecipitated from 400 μg of each whole cell lysate using a monoclonal anti-Akt antibody; endogenous in cells; host or cells: PC3 prostate carcinoma cells
Experimental: 1×10^6 PC3 prostate carcinoma cells were plated onto 6 cm dishes, allowed attach for 8 h, and then serum starved overnight. […] Total Akt was immunoprecipitated from 400 μg of each whole cell lysate using a monoclonal anti-Akt antibody, and captured with protein A-sepharose beads. […] Following washing to reduce non-specific binding, the beads were boiled for 5 min in 3× SDS protein loading buffer, centrifuged at high speed and the supernatant resolved by SDS-PAGE. The level of PP2A binding was determined by immunoblot analysis with an antibody that specifically recognizes the catalytic subunit of the phosphatase, and comparison made with the amount of Akt pulled down and the concentration of precipitating antibody (IgG). […] To quantify this increase in complex formation, representative immunoblots from three independent experiments were digitalized, subjected to densitometric analysis, and normalized to the control for each experiment. The mean ratio of PP2A catalytic subunit to total immunoprecipitated Akt protein ±SEM was then determined.
100-600 μg of whole cell lysate was incubated with various antibodies at a 1:100 dilution in microfuge tubes on a rotating wheel for 1-2 h at RT or 16 h at 4° C. as indicated. Following brief centrifugation, 30-40 μl of pre-washed 50% Protein-A Sepharose Fast Flow beads (Sigma #9424) was added to each tube and rotated at 4° C. for 1 h at RT or 4° C. […]

[2] = molecular target: T2, purified human PP2A A-C dimer (Homo sapiens, UniProt P67775); assay: Free sulfhydryl groups in purified PP2A (Ellman's assay); assay type: biochemical; details: 15 min at 37° C.
T2 construct: purified PP2A A-C dimer purified from human red blood cells; purchased Upstate 14-111 (lot #28002); host or cells: human red blood cells (native purification)
Description: Inactivating reversible oxidation of protein phosphatases involves the modification of a critical cysteine residue within the catalytic domain, ultimately leading to the formation of either intramolecular disulphide or sulphenyl-amide bonds. […] Ellman's reagent (5,5′-Dithio-bis(2-nitrobenzoic acid), DTNB) rapidly forms a disulphide bond with free sulfhydryl groups with the release of chromogenic thiolate ions. […] The quantity of free sulfhydryl groups present within the phosphatase was then determined by the addition of Ellman's reagent and subsequent measurement of absorbance at 412 nm (FIG. 5C).
The change in free sulfhydryl groups in purified PP2A following various treatments was determined using Ellman's Reagent. To 0.01 U of PP2A was added to 37.5 μl of dilution buffer (30 mM Tris-HCl, 3 mM EDTA, pH 8.2), 12.5 μl DTNB reagent (Ellman's reagent) and 200 μl of methanol. Samples were incubated for 5 min at RT, and then extinction measured in duplicate for each at 412 nm.

PHF Tau = details: Balb/C Nu Nu male mice, single subcutaneous injection 300 μg per 200 μl PBS, 2 and 6 hours
Experimental: Lysates preparation and Immunoblotting: Cells were washed twice in cold PBS and were lysed in 150 μl of cold RIPA buffer (containing 10% glycerol, 20 mM Tris, 137 mM NaCl, 0.1% SDS, 0.05% IGEPAL, 1% Triton X-100, 2 mM EDTA, 10% NaV, 2% NaF and 4× protease inhibitor), similarly, brain tissues were homogenised in dry ice using mortar and pestle, and lysed in 150 μl RIPA buffer. Samples were incubated on ice for 30 minutes, followed by centrifugation at 13000 rpm/ 10 minutes/ 4° C. Supernantant was collected and protein estimation was calculated for each sample by using BCA reagent (Sigma). Equal amounts of protein were loaded into each lane of a 10% SDS-polyacrylamide gel. The proteins were transferred onto PVDF (Millipore) membranes and were blocked with 5% skim milk blotto for 2 hours. After blocking the membrane, primary antibodies: either anti-human PHF-Tau (AT100 at 1:200, AT180 at 1:1000, and AT270 at 1:2500) or anti-human Tau (HT-7 at 1:1000) were incubated overnight at 4° C. in 5% skim milk blotto. Prior to secondary antibody incubation, membranes were rinsed 3× followed by 3×5 minutes washed in Tris-Buffered Saline with 0.01% Tween at room temperature. […] Membranes were washed as described above and were detected by using Amersham ECL western blotting detection reagent (Amersham Bioscience, Buckinghamshire, UK). […]

human TAU441 = details: TMHT mice
Experimental: This was done every Monday, Wednesday and Friday, and the water was weighed on exchange to measure consumption.
After blood sampling transgenic mice were intracardially perfused with 0.9% sodium chloride. Brains were rapidly removed, and the right half was immersion fixed for 24 hours in freshly prepared 4% Paraformaldehyde and embedded in paraffin for histological investigations. The left hemisphere was frozen on dry ice and stored at −80° C. for possible later biochemical analysis.
In initially nine (9) brain hemispheres (≧3 per Tg animal group) histological evaluations were performed to qualitative and quantitative evaluate TAU pathology.
Fifteen (15) coronal consecutive sections (Leica SM 2000R) were cut (5 μm thick) at each of 5 different brain layers between Bregma −1.82 and −1.34 mm, which were chosen according to the morphology atlas “The Mouse Brain” from Paxinos and Franklin (2 ^d edition), for Gallyas staining and for determination TAU pathology with specific antibodies (AT180 and HT7). Tissues of all transgenic animals investigated were handled in exactly the same way to avoid bias due to variation of this procedure. Remaining brain hemispheres or tissue not used are saved and stored until the sponsor has decided to how to proceed or until end of the study.
TAU depositions were determined using the monoclonal TAU-antibodies AT180 and HT7 (Pierce Endogen®).
Five (5) μm thick coronal paraffin sections from each of the five different layers were stained with the above described monoclonal mouse anti-human TAU-antibodies (AT180—1:100; HT7—1:1000) and visualized using a secondary anti-mouse Cy3 (1:500, Jackson Laboratories®). The detailed staining protocols are set out below:
AT180 incubation protocol for the determination of human PHF-TAU depositions • 1.) Deparaffinize and hydrate tissue sections through Tissue Clear (Sakura®) and graded alcohol (Merck®) series. • 2.) Wash for 2 minutes in Aqua bidest (Fresenius-Kabi®) • 3.) Place tissue sections for antigen unmasking in 10% citrate buffer (Labvision®) for 15 minutes at 95° C. in a steamer and to cool down for 15 minutes at room temperature. • 4.) Wash sections for 2×5 minutes in PBS. • 5.) Block endogenous peroxidase with 1% hydrogen peroxide (Linaris®) in methanol (Merck®) for 10 minutes at room temperature. • 6.) Wash sections for 2×5 minutes in PBS. • 7.) Block unspecific bindings with MOM-Blocking Reagent (Vector®) for 60 minutes at room temperature in a damp chamber. • 8.) Wash sections for 2×5 minutes in PBS. • 9.) Block unspecific bindings with MOM-Diluent (Vector®) for 5 minutes at room temperature. • 10.) Incubate with AT180 (Pierce Endogen®; 1:100 in MOM-Diluent) for 60 minutes at room temperature in a damp chamber. • 11.) Wash sections for 3×5 minutes in PBS. • 12.) Block unspecific bindings with 10% Non-Immune Goat-Normal Serum (Dako®) for 10 minutes at room temperature in a damp chamber. • 13.) Wash sections for 2×5 minutes in PBS. • 14.) Incubate with Cy 3 Goat Anti-Mouse (Jackson®; 1:500 in MOM-Diluent) for 60 minutes at room temperature in a damp chamber. • 15.) Wash sections for 5 minutes in PBS. • 16.) Wash sections for 5 minutes in Aqua bidest. • 17.) Cover sections with Moviol and coverslips.

T2 sequence (P67775 whole entry): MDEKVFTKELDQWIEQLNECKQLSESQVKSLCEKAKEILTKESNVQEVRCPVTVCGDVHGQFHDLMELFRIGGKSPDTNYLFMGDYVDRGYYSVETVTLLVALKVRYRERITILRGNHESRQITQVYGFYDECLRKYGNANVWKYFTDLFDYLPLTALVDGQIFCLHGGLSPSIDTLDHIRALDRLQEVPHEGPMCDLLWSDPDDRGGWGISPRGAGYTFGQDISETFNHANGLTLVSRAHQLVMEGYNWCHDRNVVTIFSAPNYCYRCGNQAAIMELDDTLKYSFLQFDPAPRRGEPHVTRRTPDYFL
T2 sequence (P30153 2-589 partner limits assumed): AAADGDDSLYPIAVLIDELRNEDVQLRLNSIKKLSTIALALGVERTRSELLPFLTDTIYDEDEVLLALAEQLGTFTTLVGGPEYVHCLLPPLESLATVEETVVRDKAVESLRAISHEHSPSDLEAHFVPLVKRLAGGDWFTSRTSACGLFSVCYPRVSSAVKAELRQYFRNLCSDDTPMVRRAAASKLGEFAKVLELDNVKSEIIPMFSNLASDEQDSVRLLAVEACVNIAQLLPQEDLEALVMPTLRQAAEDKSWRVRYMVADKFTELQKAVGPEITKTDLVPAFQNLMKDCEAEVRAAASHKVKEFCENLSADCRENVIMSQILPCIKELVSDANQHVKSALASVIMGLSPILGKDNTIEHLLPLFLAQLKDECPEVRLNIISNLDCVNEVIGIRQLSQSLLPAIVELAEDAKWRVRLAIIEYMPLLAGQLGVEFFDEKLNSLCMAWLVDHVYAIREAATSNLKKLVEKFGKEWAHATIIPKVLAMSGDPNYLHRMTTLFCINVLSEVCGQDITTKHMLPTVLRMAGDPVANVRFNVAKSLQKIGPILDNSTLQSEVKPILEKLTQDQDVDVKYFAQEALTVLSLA
T1 sequence (P67775 whole entry): as the sequence (P67775 whole entry) above
T1 sequence (P30153 2-589 partner limits assumed): as the sequence (P30153 2-589 partner limits assumed) above

SMILES: O=[Se](=O)(O)O [sodium selenate]
- increase in the binding of PP2A catalytic subunit to Akt protein [1]: approximately 50%
- number of free sulfhydryl groups in PP2A ([2]; 0.01 U PP2A, 10 mM of each agent): has no effect
- hydrogen peroxide mediated modification of PP2A sulfhydryl groups in the presence of sodium selenate ([2]; sodium selenate 10 mM and hydrogen peroxide 10 mM): did not protect PP2A from hydrogen peroxide mediated modification of sulfhydryl groups; also recorded: significantly more efficient in the presence of sodium selenate
- PHF Tau signal in brain lysate, clone AT100 (60 kDa) (PHF Tau): PHF Tau signal appeared to be reduced
- PHF Tau signal in brain lysate, clone AT180 (60 kDa) (PHF Tau): PHF Tau signal clearly reduced
- percentage of relative TAU area in the Amygdala (AT180), versus untreated baseline (human TAU441): not versus untreated baseline group
- percentage of relative HT7-TAU area in the hippocampus (human TAU441; 1.2 mg, versus vehicle (ANOVA p<0.05, T-Test p=0.04) and untreated baseline (ANOVA p<0.05)): significantly reduced
- percentage of relative AT180-TAU area in the hippocampus (human TAU441; 1.2 mg, versus vehicle (T-Test p=0.04)): reduced
- percentage of relative TAU area in the Amygdala (AT180), versus vehicle (human TAU441; ANOVA p<0.05, T-Test p=0.0045): significantly reduced percentage of relative HT7-TAU area
- TAU load and TAU positive cells in the amygdala and neuronal layer of the hippocampal CA1 region (human TAU441; AT180 and HT7 immunoreactivity): visibly reduced TAU load as well as TAU positive cells
- percentage of relative HT7-TAU area in the Amygdala (human TAU441; versus untreated baseline (ANOVA p<0.01) and vehicle (ANOVA p<0.05, T-test p=0.0018)): significantly reduced percentage of relative HT7-TAU area
